Like-named read-outs stand apart in the source and are kept apart here. Starred links: 1 amine or outer side, 2 acyl side, 3 side chain; linkers in the order of their positions; H or OH if unused. Positions of bridges follow the written chain, without caps; N, C: chain ends. Non-standard residues stand in square brackets, D forms with d. Residues, ends and D or L forms follow the SMILES beside them. Groups on a side chain read outwards from the residue. Chains are numbered I, II in the order given. *: point of attachment. X7 = O=C(O)CN1CCN(CC(=O)O)CCN([C@H](CCC(=O)*)C(=O)O)CCN(CC(=O)O)CC1; Benzoyl(4-SiFtBu2) = CC(C)(C)[Si](F)(c1ccc(C(=O)*)cc1)C(C)(C)C; DOTA = O=C(O)CN1CCN(CC(=O)O)CCN(CC(=O)*)CCN(CC(=O)O)CC1; d(γGlu) = O=C(O)[C@@H](CCC(=O)[*:2])N[*:1]; dTyr(3-I) = N[C@H](Cc1ccc(O)c(I)c1)C(=O)O; 2Nal = N[C@@H](Cc1ccc2ccccc2c1)C(=O)O; dNMeOrn = CN[C@H](CCCN)C(=O)O; 4Amb = NCc1ccc(C(=O)O)cc1; 4Abz = Nc1ccc(C(=O)O)cc1; dDap = NC[C@@H](N)C(=O)O; CO = O=C([*:1])[*:2]; Ahx = NCCCCCC(=O)O
Experiments:
[1] = test system: CXCR4-expressing Chem_1 cells; assay: Determination of internalization, dual tracer with 125I-Fc-131; type: cell-based; details: for Cell-bound [%] / Internalized [%]: of total cellular activity; for Internalization [% Fc-131] 2 h: 177Lu-labeled
Method: CXCR4-expressing Chem_1 cells were grown in DMEM-F12 medium supplemented with 10 vol % FBS, 1 vol % NEA, 1 vol % PenStrep and 1 vol % HEPES (1.00 M). Cells were maintained in a 5% CO2 atmosphere at 37° C.
For in vitro experiments, cells were harvested by removal of the medium and incubation of the cells with trypsine/EDTA (0.05%/0.02%; w/v) for 30 in at 37° C.
Each well (n=3 for every time point) was either treated with 25 μL DMEM-F12 (+5 wt % BSA) or 25 μL of an AMD3100 stock (1 mM in H2O) for blockage of the receptors.
The experiment was stopped by placing the well-plate on ice and removing the supernatant. The cells were washed with 250 μL cold HBSS and the both fractions for each well combined, comprising the amount of unbound radioligand.
The supernatant was removed, the cells washed with cold HBSS and the respective fractions combined to obtain the amount of surface-bound radioligand.
The cells were then incubated with 300 μL NaOH (1.00 M in H2O) for at least 30 at r.t. before the supernatant was removed. The well was washed with another 300 μL NaOH and the fractions combined that contain the amount of internalized radioligand.
The three different fractions were subjected to activity measurement in the γ-counter, measuring the activity of the radionuclide used for the labeling of the peptide under investigation first. […] Data was corrected for non-specific internalization and referred to the specific internalization of the standard ligand

[2] = Octanol/PBS partition coefficient (logD7.4); type: physicochemical; details: n-octanol/PBS pH 7.4, radiolabeled compound
Method: The tubes were vortexed at maximum speed for 3 min to ensure equilibrium before centrifugation at 15.000×g for 5 min on a Biofuge 15 from Heraeus Holding GmbH (Osterode, Germany). An aliquot of 100 μL of each fraction was measured in the γ-counter and the log D7.4 calculated as follows: […]

[3] = biological target: CXCR4 (Homo sapiens, UniProt P61073); assay: Determination of IC50: competition with 125I-Fc-131 on CXCR4-positive Jurkat cells; type: binding; design: CXCR4-positive Jurkat T lymphocyte cells were grown in Gibco's RPMI 1640 GlutaMAX medium; endogenous in cells; host or cells: Jurkat T lymphocyte cells (whole cells in suspension, 400.000 per tube);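 further: test compound at 10^−5 to 10^−11 M competed for 2 h at 8 °C with the radioligand on 400,000 cells per well, bound versus free activity measured by γ-counting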
Sequence of CXCR4 (P61073 whole entry): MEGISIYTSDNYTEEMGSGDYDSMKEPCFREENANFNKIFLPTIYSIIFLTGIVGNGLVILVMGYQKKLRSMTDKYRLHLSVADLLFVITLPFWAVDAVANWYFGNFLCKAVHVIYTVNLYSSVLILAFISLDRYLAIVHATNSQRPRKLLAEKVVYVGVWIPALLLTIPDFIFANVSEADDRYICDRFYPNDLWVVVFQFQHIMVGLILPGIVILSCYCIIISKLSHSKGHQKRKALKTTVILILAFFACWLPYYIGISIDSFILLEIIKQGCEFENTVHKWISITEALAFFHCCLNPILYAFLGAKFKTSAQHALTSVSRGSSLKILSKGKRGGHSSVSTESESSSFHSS

[4] = Biodistribution in Jurkat tumor-bearing CB-17 SCID mice; type: in vivo; details: female, CB-17 SCID, mouse, in vivo, iv, total radioactivity
Method: All animal experiments were conducted in accordance with general animal welfare regulations in Germany and the institutional guidelines for the care and use of animals. To establish tumor xenografts, Jurkat cells (2-3×10^7 cells) were suspended in a mixture of Gibco's RPMI 1640 medium and Matrigel (1/1; v/v) from BD Biosciences (Heidelberg, Germany), and inoculated subcutaneously onto the right shoulder of 6-10 weeks old CB17-SCID mice from either Charles River GmbH (Sulzfeld, Germany) or the in-house mouse breeding facility. Mice were used when tumors had grown to a diameter of 5-8 mm (4-10 weeks after inoculation).
Approximately 0.5-20 MBq (0.02-0.20 nmol) of the ^125I-, ^177Lu-, ^99mTc-, ^18F- or ^68Ga-labeled ligand were injected into the tail vein of Jurkat tumor-bearing CB-17 SCID mice and the animals sacrificed after the respective biodistribution time. Selected organs were removed, weighted and measured in a γ-counter.

[5] = unlabeled or cold (natGa/natLu) compound vs 125I-Fc-131, Jurkat cells, read-out: IC50
[6] = unlabeled or cold (natGa/natLu) compound vs 125I-Fc-131, Jurkat cells

In the case of `C[C@@H](NC(=O)[C@@H](CCCNC(=N)N)NC(=O)[C@@H](CN)NC(=O)CN1CCN(CC(=O)O)CCN(CC(=O)O)CCN(CC(=O)O)CC1)C(=O)NCc1ccc(C(=O)NCCC[C@@H]2C(=O)N[C@@H](CCCNC(=N)N)C(=O)N[C@@H](Cc3ccc4ccccc4c3)C(=O)NCC(=O)N[C@H](Cc3ccc(O)cc3)C(=O)N2C)cc1` [CXCR4-DOTA-1 [Lu]] (cyclo([dY][dNMeOrn]([4Amb-dA-dR-dDap-DOTA])R[2Nal]G)), the “Internalized in relation to 125I-Fc-131 [%]” value (from here on “Internalized in relation … [%]”) ([1]; 15 min) is reported as 78.3 ± 6.93%, the “Cell-bound [%]” value ([1]; 15 min) is reported as 4.27 ± 0.38% and the “Internalized [%]” value ([1]; 15 min) is reported as 2.61 ± 0.20%. For the same molecule, the “Internalized in relation … [%]” value ([1]; 30 min) was 95.0 ± 9.39%, the “Cell-bound [%]” value ([1]; 30 min) was 4.43 ± 0.08% and the “Internalized [%]” value ([1]; 30 min) was 3.28 ± 0.27%. The “Internalized in relation … [%]” value ([1]; 60 min) was 109 ± 24.6%, the “Cell-bound [%]” value ([1]; 60 min) was 6.02 ± 0.67% and the “Internalized [%]” value ([1]; 60 min) was 5.04 ± 0.92%. The “Internalized in relation … [%]” value ([1]; 120 min) was 133 ± 7.31%, the “Internalization [% Fc-131] 2 h” value ([1]; 2 h) was 133 % Fc-131 and the “Cell-bound [%]” value ([1]; 120 min) was 4.97 ± 0.31%. For the same molecule, the “Internalized [%]” value ([1]; 120 min) was 7.08 ± 0.22%, the logD7.4 [2] was −3.41 ± 0.05 (6) and the IC50 [3, 5] was 5.05 ± 1.75 nM.
For `C[C@@H](NC(=O)[C@@H](CCCNC(=N)N)NC(=O)[C@@H](CN)NC(=O)CN1CCN(CC(=O)O)CCN(CC(=O)O)CCN(CC(=O)O)CC1)C(=O)NCc1ccc(C(=O)NCCC[C@@H]2C(=O)N[C@@H](CCCNC(=N)N)C(=O)N[C@@H](Cc3ccc4ccccc4c3)C(=O)NCC(=O)N[C@H](Cc3ccc(O)c(I)c3)C(=O)N2C)cc1` [CXCR4-DOTA-2 [Lu]] (cyclo([dTyr(3-I)][dNMeOrn]([4Amb-dA-dR-dDap-DOTA])R[2Nal]G)), the “Internalized in relation … [%]” value ([1]; 15 min) was 247 ± 26.2%, the “Cell-bound [%]” value ([1]; 15 min) was 8.31 ± 1.20% and the “Internalized [%]” value ([1]; 15 min) was 11.2 ± 1.93%. For the same molecule, the “Internalized in relation … [%]” value ([1]; 30 min) was 347 ± 36.1%, the “Cell-bound [%]” value ([1]; 30 min) was 13.5 ± 1.38% and the “Internalized [%]” value ([1]; 30 min) was 17.8 ± 2.02%. For the same molecule, the “Internalized in relation … [%]” value ([1]; 60 min) was 368 ± 36.9%, the “Cell-bound [%]” value ([1]; 60 min) was 16.4 ± 1.31% and the “Internalized [%]” value ([1]; 60 min) was 21.8 ± 1.10%. The “Internalized in relation … [%]” value ([1]; 120 min) was 456 ± 76.3%, the “Internalization [% Fc-131] 2 h” value ([1]; 2 h) was 456 % Fc-131 and the “Cell-bound [%]” value ([1]; 120 min) was 22.2 ± 2.68%. For the same molecule, the “Internalized [%]” value ([1]; 120 min) was 27.3 ± 3.62%, the logD7.4 [2] was −2.20 ± 0.06 (8) and the tissue uptake at 1 h ([4]; % iD/g Blood) was 1.67 %ID/g. For the same molecule, the tissue uptake at 1 h ([4]; % iD/g Bone) was 0.9 %ID/g, the tissue uptake at 1 h ([4]; % iD/g Heart) was 1.04 %ID/g and the tissue uptake at 1 h ([4]; % iD/g Intestine) was 0.9 %ID/g. The tissue uptake at 1 h ([4]; % iD/g Kidney) was 15.7 %ID/g, the tissue uptake at 1 h ([4]; % iD/g Liver) was 17.7 %ID/g and the tissue uptake at 1 h ([4]; % iD/g Lung) was 2.94 %ID/g. It also gave a tissue uptake at 1 h ([4]; % iD/g Muscle) of 0.3 %ID/g, a tissue uptake at 1 h ([4]; % iD/g Pancreas) of 0.53 %ID/g and a tissue uptake at 1 h ([4]; % iD/g Spleen) of 3.62 %ID/g. It also gave a tissue uptake at 1 h ([4]; % iD/g Stomach) of 1.41 %ID/g, a tissue uptake at 1 h ([4]; % iD/g Tumor) of 5.27 %ID/g and an IC50 [3, 5] of 6.47 ± 1.75 nM.
With `CC[C@H](C)[C@@H]([C@@H](CC(=O)N1CCC[C@H]1[C@H](OC)[C@@H](C)C(=O)N[C@H](C)[C@@H](O)c1ccccc1)OC)N(C)C(=O)[C@@H](NC(=O)[C@H](C(C)C)N(C)C(=O)OCc1ccc(NC(=O)[C@H](CCCNC(N)=O)NC(=O)[C@@H](NC(=O)CCCCCN2C(=O)CC(SCC[C@@H](N)C(=O)N[C@H](Cc3c[nH]cn3)C(=O)N[C@H](CCCNC(=N)N)C(=O)N[C@H](C)C(=O)Nc3ccc(C(=O)NCCC[C@@H]4C(=O)N[C@@H](CCCNC(=N)N)C(=O)N[C@@H](Cc5ccc6ccccc6c5)C(=O)NCC(=O)N[C@H](Cc5ccc(O)cc5)C(=O)N4C)cc3)C2=O)C(C)C)cc1)C(C)C` (stereo partly drawn) [CXCR4-MMAE-3] the “Internalization 2 h [% of bound peptide]” value ([1]; 2 h, 125I-labeled) was 24.9 ± 0.85 % of bound peptide, the logD7.4 [2] was 0.80 ± 0.12 (6) and the IC50 [3] was 43.9 ± 6.18 nM.
For `C[C@@H](NC(=O)[C@@H](CCCNC(=N)N)NC(=O)[C@@H](CN)NC(=O)CCCCCNC(=O)[C@@H](CNC(=O)CC[C@H](C(=O)O)N1CCN(CC(=O)O)CCN(CC(=O)O)CCN(CC(=O)O)CC1)NC(=O)[C@@H](CNC(=O)c1ccc([Si](F)(C(C)(C)C)C(C)(C)C)cc1)NC(=O)CC[C@@H](NC(=O)N[C@H](CCC(=O)O)C(=O)O)C(=O)O)C(=O)Nc1ccc(C(=O)NCCC[C@@H]2C(=O)N[C@@H](CCCNC(=N)N)C(=O)N[C@@H](Cc3ccc4ccccc4c3)C(=O)NCC(=O)N[C@H](Cc3ccc(O)cc3)C(=O)N2C)cc1` [CXCR4-SiFA-5 [Ga]] (I: {dE-CO-d(γGlu)}-[dDap](Benzoyl(4-SiFtBu2))[dDap](X7)[Ahx][dDap][dR][dA][4Abz] / II: cyclo([dY][dNMeOrn]R[2Nal]G); amide I:C-II:2), the “Internalized in relation … [%]” value ([1]; 30 min) was 233 ± 44.1%, the “Cell-bound [%]” value ([1]; 30 min) was 0.66 ± 0.22% and the “Internalized [%]” value ([1]; 30 min) was 3.46 ± 0.57%. The “Internalization [% Fc-131]” value ([1]; 90 min) was 209 % Fc-131, the “Internalized in relation … [%]” value ([1]; 90 min) was 209 ± 27.2% and the “Cell-bound [%]” value ([1]; 90 min) was 0.72 ± 0.34%. The “Internalized [%]” value ([1]; 90 min) was 3.70 ± 0.41%, the logD7.4 [2] was −1.85 ± 0.07 (7) and the IC50 [3, 6] was 36.5 ± 4.51 nM.
For `C[C@@H](NC(=O)[C@@H](CCCNC(=N)N)NC(=O)[C@@H](CN)NC(=O)CCCCCNC(=O)[C@@H](CNC(=O)CC[C@H](C(=O)O)N1CCN(CC(=O)O)CCN(CC(=O)O)CCN(CC(=O)O)CC1)NC(=O)C[N+](C)(C)Cc1ccc([Si](F)(C(C)(C)C)C(C)(C)C)cc1)C(=O)Nc1ccc(C(=O)NCCC[C@@H]2C(=O)N[C@@H](CCCNC(=N)N)C(=O)N[C@@H](Cc3ccc4ccccc4c3)C(=O)NCC(=O)N[C@H](Cc3ccc(O)cc3)C(=O)N2C)cc1` [CXCR4-SiFA-6 [Ga]], the “Internalized in relation … [%]” value ([1]; 30 min) was 829 ± 48.1%, the “Cell-bound [%]” value ([1]; 30 min) was 0 ± 0.29% and the “Internalized [%]” value ([1]; 30 min) was 37.0 ± 1.06%. The “Internalization [% Fc-131]” value ([1]; 90 min) was 980 % Fc-131, the “Internalized in relation … [%]” value ([1]; 90 min) was 980 ± 85.6% and the “Cell-bound [%]” value ([1]; 90 min) was 0.81 ± 0.14%. The “Internalized [%]” value ([1]; 90 min) was 48.1 ± 1.26%, the logD7.4 [2] was −1.05 ± 0.06 (8) and the IC50 [3, 6] was 5.52 ± 0.71 nM.
